One data set has as its target T1, MAGL enzyme (Homo sapiens, UniProt Q99685).
T1 sequence (Q99685 1-303): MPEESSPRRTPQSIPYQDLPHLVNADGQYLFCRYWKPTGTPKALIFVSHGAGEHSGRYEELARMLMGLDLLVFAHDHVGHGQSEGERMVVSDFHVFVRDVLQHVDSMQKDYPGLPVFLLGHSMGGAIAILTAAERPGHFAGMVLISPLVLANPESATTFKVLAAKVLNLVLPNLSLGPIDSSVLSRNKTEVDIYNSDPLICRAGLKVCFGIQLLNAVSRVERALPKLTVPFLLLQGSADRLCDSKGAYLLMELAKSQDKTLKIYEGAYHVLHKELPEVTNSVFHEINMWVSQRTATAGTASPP
In words: MAGL reversible inhibition assay (return of activity after washout). Format: biochemical. The conditions noted are these: for A: degree to which MAGL enzymatic activity returned following washout: pre-washout compound concentration 1 μM, relative to control without inhibitor. How it is done: Example 24: Measuring Reversible MAUL Inhibition (IC50)
The reversible mechanism of MAGL inhibition of a test compound of Formula (I) can be determined. Flag-tagged MAGL enzyme will be immobilized on anti-Flag beads. […] Colorimetric substrate (4-NPA) will be added and the reaction monitored on a plate reader for 30 minutes to verify complete inhibition. Immobilized enzyme will then be washed thoroughly to remove the inhibitor, and fresh substrate will be added. The reaction will be monitored for an additional 30 minutes; returning enzymatic activity will indicate reversibility of inhibition.
Determining MAGL Reversible Inhibition:
MAGL enzyme was incubated for 30 minutes in the presence of 40× the IC50 concentration of inhibitor. […] Substrate was added and the reaction was monitored for 30 minutes.

Data set [1] is described as follows: Pharmacokinetic study of compounds in mice (brain exposure). The conditions noted are these: oral; for AUC(0-t) / Cmax: male, C57BL/6, mouse, 5 mg/kg, Protocols B-E. The class given is in vivo, male C57BL/6 mice. The method, then:
Example 25: Pharmacokinetic Study of Compounds in Mice
Healthy male C57BL/6 mice (8-12 weeks old) weighing between 17 to 35 g were procured from Global, India. Temperature and humidity were maintained at 22±3° C. and 30-70%, respectively and illumination was controlled to give a sequence of 12 hr light and 12 hr dark cycle. Temperature and humidity were recorded by auto-controlled data logger system. All the animals were provided laboratory rodent diet. Reverse osmosis water treated with ultraviolet light was provided ad libitum.
Protocol A: Twenty-four male mice were divided into two groups as; Group 1: 30 mg/kg/IP; Plasma and brain; Number of animals=12; Animal #1-12. Group 2: 30 mg/kg/PO; Plasma and brain; Number of animals=12; Animal #13-24. Animals in Group 1 were administered intraperitoneally with solution formulation of PSY-05-00074-001 in 5% NMP, 5% Solutol HS-15 and 90% normal saline at […] dose. Animals in Group 2 were administered orally with solution formulation of PSY-05-00074-001 in 5% NMP, 5% Solutol HS-15 and 90% normal saline at 30 mg/kg dose. Blood samples (approximately 60 μL) were collected under light isoflurane anesthesia from retro orbital plexus at 0.25, 0.5, 1, 2, 4 and 8 hr (IP and PO). Plasma samples were separated by centrifugation of whole blood and stored below −70° C. until bioanalysis. Immediately after collection of blood from intraperitoneal and oral group animals, animals were euthanized with excess CO2 and brain samples were collected from set of two mice at each time point. Brain samples were divided into two parts. Half brain samples were homogenized using ice-cold phosphate buffer saline (pH-7.4) and homogenates were stored below −70±10° C. until analysis. Total homogenate volume was three times the brain weight. Other part of brain was stored below −70±10° C. for further analysis. All samples were processed for analysis by protein precipitation using acetonitrile and analyzed with fit-for-purpose LC/MS/MS method (LLOQ-2.02 ng/mL for plasma and 6.06 ng/g for brain). Pharmacokinetic parameters were calculated using the non-compartmental analysis tool of Phoenix WinNonlin®.
Protocol B: Thirty six mice were included into the study and divided in to three groups as Group 1 (n=12), Group 2 (n=12) and Group 3 (n=12) with n=2 mice per time-point design. Animals in Group 1 were administered intravenously with solution formulation of PSY-05-00414-001 at 5 mg/kg dose. Animals in Group 2 were administered orally with solution formulation of PSY-05-00414-001 at a dose of 5 mg/kg. Animals in Group 3 were administered intraperitoneally with solution formulation of PSY-05-00414-001 at 5 mg/kg dose. The formulation vehicle for all the three groups was 5% NMP, 5% Solutol HS-15 and 90% normal saline. Blood samples (approximately 60 μL) were collected under light isoflurane anesthesia from two mice at 0.25, 0.5, 1, 2, 4 and 8 h. Plasma was harvested by centrifugation of blood and stored at −70±10° C. until analysis. After blood collection, brain was perfused and isolated at 0.25, 0.5, 1, 2, 4 and 8 h. Brain samples were dipped thrice in ice-cold phosphate buffer saline, blotted dry and cut in to two equal portion. Half-brain samples from each time-point were weighed and homogenized using ice-cold phosphate buffer saline with twice volume of brain weight making the total homogenate three volumes and stored below −70±10′° C. until analysis. Remaining half-portions of brain samples was snap freeze and kept in −70±10° C. until further confirmation from client. Plasma and brain samples were quantified by fit-for-purpose LC-MS/MS method (LLOQ: 1.01 ng/mL for plasma and 2.02 ng/mL for brain).
Protocol C: Fifty four male mice were included in study and divided in to three groups as Group 1 (n=18), Group 2 (n=18) and Group 3 (n=18) with 3 mice/time point design. […]

For data set [2], the target named is T2, human MAGL (Homo sapiens, UniProt Q99685).
T2 construct: recombinant MAGL enzyme (aa 2-303 RBC, internal preparation)
T2 sequence (Q99685 2-303): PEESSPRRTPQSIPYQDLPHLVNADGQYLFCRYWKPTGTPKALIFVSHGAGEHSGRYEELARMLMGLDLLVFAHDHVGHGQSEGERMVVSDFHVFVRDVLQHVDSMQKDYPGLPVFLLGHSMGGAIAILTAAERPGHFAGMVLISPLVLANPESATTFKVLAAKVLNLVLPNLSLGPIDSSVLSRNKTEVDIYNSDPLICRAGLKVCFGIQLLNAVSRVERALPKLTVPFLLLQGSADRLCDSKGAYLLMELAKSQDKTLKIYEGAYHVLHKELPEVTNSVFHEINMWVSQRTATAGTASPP
Put plainly: MAGL inhibition potency assay with 4-nitrophenyl acetate (4NPA) substrate, absorbance 405 nm. Format: biochemical. The conditions noted are these: Method 6: Reaction Biology MAGL enzyme prep, 6 nM enzyme; read-out: MAGL Potency (Detection Method). From the text: Example 22: Measuring MAGL Inhibition Potency (IC50) The potency of certain compounds for inhibiting MAGL were obtained using the following assays. The monoacylglycerol lipase inhibitor screening assay kit from Cayman Chemical was used to measure the MAGL potency for the compounds in Table 6 and Table 7. Cayman's Monoacylglycerol Lipase Inhibitor Screening Assay provides a method for screening human MAGL inhibitors. MAGL hydrolyzes 4-nitrophenylacetate resulting in a yellow product, 4-nitrophenol, with an absorbance of 405-412 nm. MAGL Inhibition was measured by the following assay. Monoacylglycerol Lipase (MAGL) inhibition was measured using recombinant MAGL enzyme (aa 2-303 RBC, internal preparation) and the substrate 4-Nitrophenyl acetate (4NPA) (Sigma-Aldrich, N8130). Hydrolysis of the substrate in the presence of the enzyme was measured by absorbance at 405 nm. 10 μL of assay buffer (10 mM Tris pH 7.5, 1 mM EDTA, 0.9% DMSO) was added to a black 384-well non-binding plate with clear bottom (Greiner, 781906) for each reaction. […] DMSO control wells were included for reference. A 10.8 nM (1.8×) MAGL mix in assay buffer was prepared, with 25 μL added to each reaction well, for a final assay concentration of 6 nM. No enzyme wells received 25 μL of buffer. Plate was incubated at room temperature for 30 minutes. 35 mM solution of 4NPA in methanol was prepared daily. A 4.5×4NPA substrate solution was prepared in assay buffer and 10 μL was added to each reaction well, for a final assay concentration of 0.25 mM. Plate was spun for […] at 100 rpm before measuring absorbance using a CLARIOstar plate reader (BMG Labtech). A kinetic reading at 405 nm was done every minute for 30 minutes. Data was analyzed using the linear slope of the reaction progress curve and the average of the no-enzyme wells (background) was subtracted from the data. The background-subtracted slope data was converted to % activity using the average of wells with enzyme and DMSO vehicle. IC50 were calculated using GraphPad software (Sigmoidal dose response, variable slope equation). […] Table S provides potency measurements of MAGL inhibition measured using the Potency Assay of Example 22 above, with the following modifications described in Table C. [table]

In data set [3] the target is T2, human MAGL. The description is as above. Format: biochemical. The conditions noted are these: read-out: MAGL Potency (Detection Method).

Structures are written as SMILES. Where two headings read alike, the source gives them in different places.

For `O=C(c1cc(O)ccc1F)N1CC2(CC(n3cc(C(F)(F)F)c(-c4ccccc4F)n3)C2)C1` (single isomer, unassigned) [Compound 473, (2-fluoro-5-hydroxyphenyl)(6-(3-(2-fluorophenyl)-4-(trifluoromethyl) 1H-pyrazol-1-yl)-2-azaspiro[3.3]heptan-2-yl)methanone], at MAGL enzyme, the A: degree to which MAGL enzymatic activity returned following washout stood at 41%. In data set [1], this molecule displayed an AUC(0-t) of 464 ng·h/mL and a peak concentration (Cmax) of 172 ng/g.
As for `Cc1cnn(C2CC3(C2)CN(C(=O)c2cc(O)ccc2F)C3)c1-c1cc(F)ccc1Cl` (single isomer, unassigned) [Compound 519, (6-(5-(2-chloro-5-fluorophenyl)-4-methyl-1H-pyrazol-1-yl)-2-azaspiro [3.3]heptan-2-yl) (2-fluoro-5-hydroxyphenyl) methanone], on MAGL enzyme, the A: degree to which MAGL enzymatic activity returned following washout worked out at 155%.
`O=C(c1ccc(F)cc1OC1CC1)N1CC2(CC(n3nc(-c4ccccc4C(F)(F)F)cc3C(F)(F)F)C2)C1` (single isomer, unassigned) [Compound 451, (2-cyclopropoxy-4-fluorophenyl)(6-{5-(trifluoromethyl)-3-[o-(trifluoromethyl)phenyl]-1-pyrazolyl}-2-aza-2-spiro[3.3]heptyl)methanone]: the IC50 on human MAGL [2] was in the range of 50 to 150 nM. Besides, in data set [1], the AUC(0-t) was found to be 1200 ng·h/mL and the Cmax amounted to 271 ng/g.
`Cc1cc(C2CC3(C2)CN(C(=O)c2cc(O)ccc2F)C3)n(-c2ccccc2C)n1` [Compound 74, (2-fluoro-5-hydroxyphenyl)(6-(3-methyl-1-(o-tolyl)-1H-pyrazol-5-yl)-2-azaspiro[3.3]heptan-2-yl)methanone]: the “AUClast” value in data set [1] (30 mg/kg, Protocol A) was determined as 116.52 ng·h/mL.
As for `Cc1cn(C2CC3(C2)CN(C(=O)c2cc(O)ccc2F)C3)nc1-c1cc(F)ccc1Cl` [Compound 520, (6-(3-(2-chloro-5-fluorophenyl)-4-methyl-1H-pyrazol-1-yl)-2-azaspiro [3.3]heptan-2-yl)(2-fluoro-5-hydroxyphenyl) methanone], at MAGL enzyme, the A: degree to which MAGL enzymatic activity returned following washout worked out at 100%.
With `O=C(Oc1ccc([N+](=O)[O-])cc1)N1CCC(C(O)(c2ccc3c(c2)OCO3)c2ccc3c(c2)OCO3)CC1` [JZL-184, reference compound], the “B: % MAGL activity returning after washout” value at MAGL enzyme (immediately following a 30 minute washout, relative to control (no inhibitor before washout), pre-washout 1 μM) is on record as less than 1%. Further, at MAGL enzyme, the “A: degree to which MAGL enzymatic activity returned following washout” value is given as “complete lack of return of MAGL enzymatic activity”.
In the case of `O=C(c1cc(O)ccc1F)N1CC2(CC(n3cc(C4CC4)c(-c4ccccc4F)n3)C2)C1` (single isomer, unassigned) [Compound 493, (6-(4-Cyclopropyl-3-(2-fluorophenyl)-1H-pyrazol-1-yl)-2-azaspiro [3.3]heptan-2-yl) (2-fluoro-5-hydroxyphenyl) methanone], the A: degree to which MAGL enzymatic activity returned following washout on MAGL enzyme was 47%.
For `Cc1cnn(C2CC3(C2)CN(C(=O)c2cc(O)ccc2F)C3)c1-c1cc(F)ccc1F` (single isomer, unassigned) [Compound 476, (6-(5-(2,5-Difluorophenyl)-4-methyl-1H-pyrazol-1-yl)-2-azaspiro [3.3]heptan-2-yl) (2-fluoro-5-hydroxyphenyl) methanone], in data set [1], the AUC(0-t) was determined as 224 ng·h/mL and the peak level (Cmax) was 72 ng/g.
With `Cc1cc(C2CC3(C2)CN(C(=O)c2ccc(F)cc2OCC(F)(F)F)C3)n(-c2ccccc2C)n1` [Compound 178, [4-fluoro-2-(2,2,2-trifluoroethoxy)phenyl]{6-[3-methyl-1-(o-tolyl)-5-pyrazolyl]-2-aza-2-spiro[3.3]heptyl}methanone], the IC50 was less than 50 nM on human MAGL [3] (Method 2: Cayman Chemical MAGL enzyme prep, 10 nM enzyme); less than 50 nM at human MAGL [3] (Method 3: Reaction Biology MAGL enzyme prep, 10 nM enzyme); less than 50 nM at human MAGL [3] (Method 5: Cayman Chemical MAGL enzyme prep, 25 nM enzyme).

Source of the values: US20250084065A1, “INHIBITING MONOACYLGLYCEROL LIPASE (MAGL)” (Psy Therapeutics, Inc., priority 2021, published 2025).
